The source made the active and inactive calls.
Assays:
Beta-galactosidase = Beta-galactosidase (Escherichia coli, UniProt Q8VNN2); assay: Dose response counterscreen for EBI2 assay utilizing the enzyme, b-galactosidase.; format: functional
[1] = viability inhibitors of stage V gametocytes – luminescence, dose response (AID 1117278); format: functional, cell-based;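 note: gametocytes exposed to compound for 24 hours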
[2] = viability loss in human Jurkat cells – cell-based, luminescence, cytotoxicity control for P. falciparum gametocyte viability project, dose response (AID 1117277); format: functional;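 note: potency reflects loss of cellular ATP meaning fewer viable cells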
HEK293 = assay: EBV LMP1 TES2 canonical NF-kB signalling blockers – cell-based, HEK293, luciferase, cherry-pick, dose response (AID 588343); format: functional; details: Homo sapiens
Paired box protein Pax-8 = Paired box protein Pax-8 (Homo sapiens, UniProt Q06710); assay: PAX8 transcriptional activity inhibition in RMG-I – RMG-I cells, luciferase, cherry-pick, dose response (AID 687027); format: functional, cell-based;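 note: luciferase reporter driven by Pax8 target thyroperoxidase promoter measured by SteadyGlo luminescence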
Paired box protein Pax-8, sequence (Q06710 whole entry): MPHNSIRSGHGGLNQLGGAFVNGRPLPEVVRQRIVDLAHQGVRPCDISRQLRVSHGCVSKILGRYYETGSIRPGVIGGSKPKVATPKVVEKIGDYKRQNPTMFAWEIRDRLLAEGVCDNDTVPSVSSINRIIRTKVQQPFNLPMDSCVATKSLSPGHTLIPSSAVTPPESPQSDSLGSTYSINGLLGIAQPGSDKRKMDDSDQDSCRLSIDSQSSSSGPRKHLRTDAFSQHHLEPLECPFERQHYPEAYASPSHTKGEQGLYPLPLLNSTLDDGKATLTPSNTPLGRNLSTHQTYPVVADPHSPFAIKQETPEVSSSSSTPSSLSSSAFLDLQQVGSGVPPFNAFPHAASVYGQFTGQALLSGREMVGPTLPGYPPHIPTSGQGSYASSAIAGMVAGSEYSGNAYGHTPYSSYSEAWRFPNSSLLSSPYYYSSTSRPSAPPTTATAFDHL

[3] = viability loss in THP-1 monocytes – THP-1 cells, cytotoxicity control for Vif-APOBEC3G degradation inhibitor project, dose response (AID 1117359); format: functional; details: THP-1
Large T antigen = Large T antigen (Simian virus 40, UniProt P03070); format: functional, Betapolyomavirus macacae;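 note: Confirmatory-stage PubChem screen for compounds that inhibit SV40 T antigen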
Large T antigen, sequence (P03070 whole entry): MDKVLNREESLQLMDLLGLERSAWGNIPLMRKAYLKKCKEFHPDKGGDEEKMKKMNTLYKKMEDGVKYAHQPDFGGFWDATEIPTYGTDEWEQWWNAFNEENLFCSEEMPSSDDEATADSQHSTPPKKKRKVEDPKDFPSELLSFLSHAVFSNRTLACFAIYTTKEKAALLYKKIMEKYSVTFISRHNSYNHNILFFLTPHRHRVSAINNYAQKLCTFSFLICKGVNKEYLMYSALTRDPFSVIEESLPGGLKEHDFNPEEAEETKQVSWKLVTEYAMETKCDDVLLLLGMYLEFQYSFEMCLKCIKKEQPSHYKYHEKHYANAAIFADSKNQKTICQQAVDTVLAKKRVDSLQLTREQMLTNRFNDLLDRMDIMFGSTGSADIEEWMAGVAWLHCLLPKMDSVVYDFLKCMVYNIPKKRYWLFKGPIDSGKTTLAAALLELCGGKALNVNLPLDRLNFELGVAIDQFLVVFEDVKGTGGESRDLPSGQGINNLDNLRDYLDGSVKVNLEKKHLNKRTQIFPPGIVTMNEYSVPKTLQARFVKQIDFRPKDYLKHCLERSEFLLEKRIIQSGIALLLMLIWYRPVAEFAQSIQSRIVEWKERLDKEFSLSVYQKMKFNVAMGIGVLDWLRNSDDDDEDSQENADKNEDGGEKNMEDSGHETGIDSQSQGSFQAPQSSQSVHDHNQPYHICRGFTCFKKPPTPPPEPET

[4] = target: T1, Replicative DNA helicase DnaB (Mycobacterium tuberculosis, UniProt P9WMR3); assay: DnaB intein splicing inhibitors, dose response, biochemical, cell-free fluorescence (AID 449749); format: functional
T1 sequence (P9WMR3 whole entry): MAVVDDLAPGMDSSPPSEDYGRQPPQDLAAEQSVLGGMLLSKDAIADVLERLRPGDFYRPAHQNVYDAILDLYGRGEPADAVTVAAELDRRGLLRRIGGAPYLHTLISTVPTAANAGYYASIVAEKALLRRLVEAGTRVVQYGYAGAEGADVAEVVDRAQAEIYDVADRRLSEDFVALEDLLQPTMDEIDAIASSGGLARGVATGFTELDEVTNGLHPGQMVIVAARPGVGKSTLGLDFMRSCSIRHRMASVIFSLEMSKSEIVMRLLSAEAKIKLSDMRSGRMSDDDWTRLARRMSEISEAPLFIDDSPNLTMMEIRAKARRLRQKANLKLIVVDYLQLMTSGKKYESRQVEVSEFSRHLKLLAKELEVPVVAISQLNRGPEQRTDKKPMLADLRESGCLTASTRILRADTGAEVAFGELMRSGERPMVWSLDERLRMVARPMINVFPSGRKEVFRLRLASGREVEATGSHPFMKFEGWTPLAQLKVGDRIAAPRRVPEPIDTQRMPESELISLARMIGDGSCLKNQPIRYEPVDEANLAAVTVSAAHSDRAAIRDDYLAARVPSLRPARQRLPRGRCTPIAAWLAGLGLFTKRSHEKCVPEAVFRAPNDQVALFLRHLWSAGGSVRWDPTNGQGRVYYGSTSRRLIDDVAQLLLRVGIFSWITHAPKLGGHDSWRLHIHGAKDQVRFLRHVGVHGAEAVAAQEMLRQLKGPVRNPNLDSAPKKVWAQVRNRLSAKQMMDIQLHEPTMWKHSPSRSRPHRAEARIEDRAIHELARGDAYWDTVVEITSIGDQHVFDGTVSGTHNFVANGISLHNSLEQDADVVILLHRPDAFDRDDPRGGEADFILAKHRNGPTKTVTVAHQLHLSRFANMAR

Protein RecA = target: T2, Protein RecA (Mycobacterium tuberculosis, UniProt P9WHJ3); assay: Fluorescence Cell-Free Homogeneous Dose Retest to Identify Inhibitors of RecA-Intein Splicing Activity. [Related pubchem assays (depositor defined):AID2097, AID2223, AID489010, AID492950]; format: functional
T2 sequence (P9WHJ3 whole entry): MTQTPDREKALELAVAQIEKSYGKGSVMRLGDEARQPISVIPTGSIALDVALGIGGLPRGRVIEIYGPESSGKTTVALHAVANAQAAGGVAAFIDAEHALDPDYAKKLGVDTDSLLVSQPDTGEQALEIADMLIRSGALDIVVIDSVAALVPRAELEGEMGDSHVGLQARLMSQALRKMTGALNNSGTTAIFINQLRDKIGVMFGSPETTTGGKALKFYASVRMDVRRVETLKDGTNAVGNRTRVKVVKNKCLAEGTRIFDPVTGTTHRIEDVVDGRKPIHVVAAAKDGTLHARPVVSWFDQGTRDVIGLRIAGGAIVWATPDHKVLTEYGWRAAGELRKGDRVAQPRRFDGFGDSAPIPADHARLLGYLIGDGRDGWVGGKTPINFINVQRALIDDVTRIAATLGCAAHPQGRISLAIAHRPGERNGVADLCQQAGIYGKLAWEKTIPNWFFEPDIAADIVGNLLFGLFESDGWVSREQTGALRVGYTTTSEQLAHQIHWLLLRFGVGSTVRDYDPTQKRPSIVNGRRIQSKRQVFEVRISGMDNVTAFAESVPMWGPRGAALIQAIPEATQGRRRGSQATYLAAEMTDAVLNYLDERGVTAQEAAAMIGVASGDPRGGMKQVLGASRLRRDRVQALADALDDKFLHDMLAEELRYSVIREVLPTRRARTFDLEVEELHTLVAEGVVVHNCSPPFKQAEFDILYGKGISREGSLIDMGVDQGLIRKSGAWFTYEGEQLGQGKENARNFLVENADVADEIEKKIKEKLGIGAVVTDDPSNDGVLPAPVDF

[5] = target: T3, Sentrin-specific protease 8 (Homo sapiens, UniProt Q96LD8); format: functional
T3 sequence (Q96LD8 whole entry): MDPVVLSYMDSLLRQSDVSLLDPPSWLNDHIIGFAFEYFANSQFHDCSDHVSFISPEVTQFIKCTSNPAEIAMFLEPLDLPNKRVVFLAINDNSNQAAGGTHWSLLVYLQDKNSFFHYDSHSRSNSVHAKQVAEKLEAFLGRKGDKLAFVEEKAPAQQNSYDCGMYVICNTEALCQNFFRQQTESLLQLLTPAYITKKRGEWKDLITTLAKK

[6] = target: T3, Sentrin-specific protease 8; format: functional; remark: listed apart in the source
[7] = growth inhibition of yeast DHODH-expressing 3D7 parasites – SYBR Green, dry powder samples, dose response (AID 1159570); format: functional, cell-based;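 note: parasite growth measured after 72 hours of compound exposure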
[8] = toxicity to human HepG2 hepatoma cells – cell-based, plate reader, dry powder samples, cytotoxicity control, dose response (AID 1159569); format: functional;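 note: inhibitor potency with signal falling toward the positive control level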
[9] = P. falciparum Dd2 growth inhibitors, dose response, SYBR Green, cherry-picked samples (AID 1159567); format: functional, cell-based
[10] = Dd2 malaria parasite growth inhibition potency – SYBR Green, dry powder samples, dose response (AID 1159566); format: functional, cell-based;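 note: potency for growth inhibition with lower SYBR green DNA signal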
[11] = growth inhibition of PfATP4-mutant resistant parasites – NITD609-resistant line, SYBR Green, dry powder, dose response (AID 1159571); format: functional, cell-based;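 note: parasites synchronized at ring stage by sorbitol before testing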

Beta-galactosidase, sequence (Q8VNN2 whole entry): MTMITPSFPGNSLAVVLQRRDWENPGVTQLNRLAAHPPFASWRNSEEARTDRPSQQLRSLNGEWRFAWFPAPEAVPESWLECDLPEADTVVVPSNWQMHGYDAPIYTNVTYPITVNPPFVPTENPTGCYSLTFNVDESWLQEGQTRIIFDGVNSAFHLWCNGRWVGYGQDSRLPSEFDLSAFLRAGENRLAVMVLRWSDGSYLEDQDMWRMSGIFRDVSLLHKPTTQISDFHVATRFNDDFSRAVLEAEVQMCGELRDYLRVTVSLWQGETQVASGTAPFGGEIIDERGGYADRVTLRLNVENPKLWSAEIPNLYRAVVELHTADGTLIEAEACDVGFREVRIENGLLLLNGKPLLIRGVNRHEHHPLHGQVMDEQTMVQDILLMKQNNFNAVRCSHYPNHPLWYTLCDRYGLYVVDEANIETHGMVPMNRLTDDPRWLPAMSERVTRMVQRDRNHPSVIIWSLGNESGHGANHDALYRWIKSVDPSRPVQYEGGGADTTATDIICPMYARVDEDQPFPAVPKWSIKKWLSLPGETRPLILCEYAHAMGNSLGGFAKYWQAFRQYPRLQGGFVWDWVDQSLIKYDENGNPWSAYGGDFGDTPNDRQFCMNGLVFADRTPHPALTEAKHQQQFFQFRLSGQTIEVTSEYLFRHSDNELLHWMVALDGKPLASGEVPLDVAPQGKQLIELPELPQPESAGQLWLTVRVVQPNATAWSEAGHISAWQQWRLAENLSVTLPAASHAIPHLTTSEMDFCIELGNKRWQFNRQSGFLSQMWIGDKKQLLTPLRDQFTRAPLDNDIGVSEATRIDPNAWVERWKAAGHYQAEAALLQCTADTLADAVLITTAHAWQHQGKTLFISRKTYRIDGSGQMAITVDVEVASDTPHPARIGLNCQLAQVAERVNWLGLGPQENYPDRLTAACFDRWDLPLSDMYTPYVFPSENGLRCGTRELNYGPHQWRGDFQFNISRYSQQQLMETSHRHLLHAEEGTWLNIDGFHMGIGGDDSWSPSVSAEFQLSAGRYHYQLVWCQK

## COc1ccc(/C=C/C(=O)N2CCN(c3ccccn3)CC2)cc1
Beta-galactosidase
  IC50: > 80 µM (inactive)

## Cc1cc(NC(=O)COC(=O)c2cccc(O)c2)no1
[1]
  IC50: > 109 µM (inactive)
[2]
  IC50: > 83.2 µM (inactive)

## COc1ccc(OCC(=O)N2CCN(c3nnc(-c4ccccc4)c4ccccc34)CC2)cc1
Beta-galactosidase
  IC50: > 80 µM (inactive)

## C=C1C(=O)C2=CC1CCC(=O)C1(C)CCC(OC(C)=O)C(C)(C)C1CC2O (stereo not drawn)
HEK293
  AC50: 5.72 µM (active)
Paired box protein Pax-8
  AC50: 1.43 µM (active)
[3]
  CC50: 4.83 µM (active)

## CCOc1cc(NC2CS(=O)(=O)CC2O)c(OCC)cc1NC(=O)c1ccccc1 (stereo not drawn)
Large T antigen
  IC50: 31.1 µM (active)
[4]
  AC50: 52.8 µM (active)
Protein RecA
  EC50: > 380 µM (inactive)
[5]
  IC50: 34.7 µM (active)
[6]
  IC50: 45.9 µM (active)

## O=C(Nc1ccc(Br)cn1)C1CCN(S(=O)(=O)c2cccs2)CC1
[3]
  CC50: > 40 µM (active)

## CNC[C@@H]1Oc2cc(C#Cc3cccnc3)ccc2S(=O)(=O)N([C@H](C)CO)C[C@H]1C
[7]
  AC50: 2.13 µM (active)
[8]
  AC50: 93.8 µM (active)
[9]
  AC50: 1.61 µM (active)
[10]
  AC50: 1.02 µM (active)
[11]
  AC50: 0.984 µM (active)
